Patent US12128049B2, “Dosage regimen of paliperidone palmitate extended-release injectable suspension” (Luye Innomind Pharma Shijiazhuang Co., Ltd., priority 2017, dated 2024)
Several values for one entry are separate records, joined by “and”; a condition that tells them apart may be missing. Identical values can stand only once.

Columns and labels:
[1] = PK in beagle dogs under RLD regimen: IM 4.6 mg/kg day 1, 3.1 mg/kg day 8, 2.3 mg/kg day 36 (Groups I, IV); format: in vivo
Method: (§1) 20 healthy male beagle dogs (average weight about 11 kg) were randomly divided into 5 groups (Groups I-V) with 4 dogs in each group. Each animal was assigned its own number (#1-#20).
(§2) Group I animals (#1-#4) and Group IV animals (#13-#16) were tested under RLD regimen. Group II animals (#5-#8) were tested under Regimen A. Group III animals (#9-#12) and Group V animals (#17-#20) were tested under Regimen B. Table 5 summarizes the respective human dosages (mg of paliperidone) and the equivalent animal dosages (converted to mg/kg) and the dosing intervals under each dosing regimen.
(§3) The animals in each group received intramuscular injections according to the dosing regimen assigned to the group. Blood samples (1 ml/collection) were collected from the forelimb vein of each beagle immediate before administration (at 0 h), and thereafter at time intervals of 6 h (day 1), 24 hr (day 2), day 3, day 5, day 8 (prior to dosing for groups receiving RLD regimen), day 9, day 11, day 13, day 15 (prior to dosing for groups receiving Regimen A), day 17, day 19, day 22, day 24, day 26, day 29 (prior to dosing for groups receiving Regimen A), day 30, day 32, day 34, day 36 (prior to dosing for groups receiving RLD and Regimen A), day 37, day 39, day 42, day 45, day 47, day 50, day 53, day 57, day 64, day 71, day 78, and day 85. The blood samples were placed in heparinized centrifuge tubes and centrifuged for 10 min (3500 rpm). The plasma was separated, collected and stored under −80° C.

[2] = PK in beagle dogs under Regimen A: IM 6.2 mg/kg day 1, 1.5 mg/kg day 15, 2.3 mg/kg day 36 (Group II); format: in vivo
Method: as §1, §2, §3

[3] = PK in beagle dogs under Regimen B: IM 6.9 mg/kg day 1, 3.1 mg/kg day 29 (Groups III, V); format: in vivo
Method: as §1, §2, §3

[4] = over a broad pH range; cited from earlier work
[5] = Regimen B, Group V vs Group IV (FIG. 10B)

- AUC(0-t) ([1]; Group I, mean): 3332.54 µg·days/L
- AUC(0-∞) ([1]; Group I, mean): 3480.22 µg·days/L
- AUC(0-t) ([1]; Group IV, mean): 2537.85 µg·days/L
- AUC(0-∞) ([1]; Group IV, mean): 2591.12 µg·days/L
- AUC(0-t) ([2]; mean): 3208.80 µg·days/L
- AUC(0-∞) ([2]; mean): 3472.24 µg·days/L
- overall drug exposures (AUC) ([3]; RLD Regimen, Regimen A and Regimen B, Groups I-III (FIG. 10A)): comparable for all three Regimens
- Cmax vs RLD Regimen ([3]; Regimen B, Group III vs Group I (FIG. 10A)): comparable to that of RLD Regimen
- Cmax vs RLD Regimen [3, 5]: comparable to that of RLD Regimen
- time to Cmax vs RLD Regimen [3, 5]: reached Cmax earlier
SMILES: CCCCCCCCCCCCCCCC(=O)OC1CCCn2c1nc(C)c(CCN1CCC(c3noc4cc(F)ccc34)CC1)c2=O (racemic) [paliperidone palmitate, (9RS)-3-[2-[4-(6-Fluoro-1,2-benzisoxazol-3-yl)piperidin-1-yl]ethyl]-2-methyl-4-oxo-6,7,8,9-tetrahydro-4H-pyrido[1,2-a]pyrimadin-9-yl hexadecanoate]
- AUC(0-t) ([1]; Group I, individual dogs): 3632.18 µg·days/L and 2010.03 µg·days/L and 3477.47 µg·days/L and 4210.47 µg·days/L
- AUC(0-∞) ([1]; Group I, individual dogs): 3682.95 µg·days/L and 2012.83 µg·days/L and 4010.14 µg·days/L and 4214.96 µg·days/L
- AUC(0-t) ([1]; Group IV, individual dogs): 2528.69 µg·days/L and 3241.40 µg·days/L and 3191.02 µg·days/L and 1190.27 µg·days/L
- AUC(0-∞) ([1]; Group IV, individual dogs): 2546.38 µg·days/L and 3312.15 µg·days/L and 3194.15 µg·days/L and 1311.82 µg·days/L
- AUC(0-t) ([2]; individual dogs): 4069.12 µg·days/L and 3146.75 µg·days/L and 3336.44 µg·days/L and 2282.89 µg·days/L
- AUC(0-∞) ([2]; individual dogs): 4285.47 µg·days/L and 3544.02 µg·days/L and 3446.66 µg·days/L and 2612.80 µg·days/L
- trough (day 28) vs RLD Regimen [3, 5]: comparable to the same-day concentration of RLD Regimen and higher than the trough of the RLD Regimen
- solubility in aqueous media [4]: practically insoluble
